Target: T1, recombinant maize (Zea mays) CK2 a-subunit (Biaffin) (Zea mays, UniProt P28523)
T1 construct: gene ACK2; commercial recombinant catalytic alpha subunit (Biaffin)
Test: in vitro kinase assay, SDS-PAGE and phosphorimager
Format: biochemical
Conditions: protein substrate recombinant AtSOUL4 (3 µg); 25 mM Tris-HCl pH 8.0, 5 mM MgCl2, 1 mM DTT, 25 °C, 30 min; labelled compound; mere turnover

T1 sequence (P28523 whole entry): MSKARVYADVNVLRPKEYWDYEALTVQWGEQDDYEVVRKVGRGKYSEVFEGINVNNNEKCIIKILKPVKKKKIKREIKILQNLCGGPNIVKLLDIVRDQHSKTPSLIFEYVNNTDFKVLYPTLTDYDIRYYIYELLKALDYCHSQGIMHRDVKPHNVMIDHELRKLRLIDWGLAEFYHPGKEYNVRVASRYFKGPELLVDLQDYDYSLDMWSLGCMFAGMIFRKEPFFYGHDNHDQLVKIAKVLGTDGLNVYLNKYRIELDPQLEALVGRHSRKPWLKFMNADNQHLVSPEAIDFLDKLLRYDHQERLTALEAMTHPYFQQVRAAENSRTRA

Nc1ncnc2c1ncn2[C@@H]1O[C@H](COP(=O)(O)OP(=O)(O)OP(=O)(O)O)[C@@H](O)[C@H]1O [ATP]
in vitro kinase assay, SDS-PAGE and phosphorimager: revealing phosphorylation of SOUL4 both by recombinant maize CKII and stromal fraction
